Assay [1] relates to S. cerevisiae apl2Δ mutant growth inhibition. Kind of assay: growth inhibition of apl2Δ yeast, dose response, selectivity assay for post-Golgi transport modulator project, S. cerevisiae, secondary screen, background strain comparison (AID 789).
Assay in assay [2]: as above
The settings on record: S. cerevisiae background (wild-type parent) strain growth inhibition.

We go through 33 compounds from PubChem BioAssay AID789 (SRMLSC, 2007).

Active and inactive are the calls of the source. No rule for the calls is given here.

As to `O=c1c2c3c(sc2ncn1/N=C/c1ccc([N+](=O)[O-])o1)CCCC3`, the IC50 in assay [1] was 2.1 µM (inactive); in assay [2], 1.59 µM.

Consider `COc1ccc(-c2cc(N)n(S(=O)(=O)c3c(F)c(F)c(F)c(F)c3F)n2)cc1OC`, for which the results for the IC50 in assay [1] and in assay [2] were 9.68 µM (inactive) and 1.08 µM, respectively.

Consider `N#CC1=C(N)NC(SCc2ccc(F)cc2)=C(C#N)C12CCCCC2`, for which the IC50 is 7.78 µM in assay [1] and 16.3 µM in assay [2].

With `O=[N+]([O-])c1ccc(N/N=C/c2c[nH]c3ccccc23)c(S(=O)(=O)Nc2ccc(Cl)cc2)c1`, the IC50 was 7.17 µM (inactive) in assay [1] and 2.5 µM in assay [2].

For `Cc1sc(NC(=O)c2ccco2)c(C(c2cccnc2)N2CCC(C)CC2)c1C` (stereo unspecified), the figures for the IC50 in assay [1] and in assay [2] were 13.9 µM (inactive) and 5.77 µM, respectively.

On to `Cc1c(Cl)c([N+](=O)[O-])nn1Cc1ccc(C(=O)N/N=C\c2cccc(Br)c2)o1`, for which the IC50 was > 10 µM (inactive) in assay [1] and > 10 µM in assay [2].

As for `Cc1cc(N2C(=O)C3CCCN3C2c2sccc2C)no1` (stereo unspecified), the IC50 in assay [1] is > 10 µM (inactive); in assay [2], > 10 µM.

In the case of `O=C1OCC(CO)(CO)N=C1NNc1ccc(Cl)c(Cl)c1`, the IC50 was 4.53 µM (inactive) in assay [1] and 3.35 µM in assay [2].

As for `COC(=O)c1ccc(NC(=O)c2cn(-c3ccccc3)nc2-c2ccncc2)cc1`, the IC50 in assay [1] is > 10 µM (inactive); in assay [2], > 10 µM.

As for `O=C1NC2(Nc3ccccc31)C(=O)Nc1ccccc12` (stereo unspecified), the IC50 was > 10 µM (inactive) in assay [1] and > 10 µM in assay [2].

Consider `Cc1ccc(S(=O)(=O)NC(CC(C)C)C(=O)Oc2ccc3c4c(c(=O)oc3c2)CCC4)cc1` (stereo unspecified), for which the values for the IC50 in assay [1] and in assay [2] were > 10 µM (inactive) and > 10 µM, respectively.

Turning to `CC1CCCN(CCOCCOc2ccc(Cl)cc2Br)C1` (stereo unspecified), the values for the IC50 in assay [1] and in assay [2] were 21.7 µM and > 10 µM, respectively.

With `COCCNc1cc(C)nc2c3c(C)cc(C)nc3nn12`, the IC50 is > 10 µM (inactive) in assay [1] and > 10 µM in assay [2].

For `Cc1nc(NC(=O)c2ccccc2)sc1-c1csc(NCc2ccccc2)n1`, the IC50 was > 10 µM (inactive) in assay [1] and > 10 µM in assay [2].

In the case of `CCOC(=O)c1cc2c(ccn2C)n1CC(=O)N1CCN(c2ccccc2OC)CC1`, the IC50 is > 10 µM (inactive) in assay [1] and > 10 µM in assay [2].

Regarding `CCCC(=O)Nc1ccc(Cl)c(NC(=O)c2cccnc2Cl)c1`, the IC50 in assay [1] is > 10 µM (inactive); in assay [2], > 10 µM.

In the case of `Cc1cc(=O)[nH]c(SCC(=O)c2ccc(C)c(C)c2)n1`, the figures for the IC50 in assay [1] and in assay [2] were 6.63 µM (inactive) and 2.31 µM, respectively.

For `CC1CC(C)CN(CCOc2ccc(Cl)cc2Cl)C1` (stereo unspecified), the IC50 is > 10 µM (inactive) in assay [1] and > 10 µM in assay [2].

For `Fc1ccc(-c2noc(C3CCN(Cc4cccnc4)CC3)n2)cc1`, the IC50 in assay [1] was > 10 µM (inactive); in assay [2], > 10 µM.

On to `Cc1ccc(N2CCN(S(=O)(=O)N3CCCCCC3)CC2)cc1Cl`, for which the IC50 was > 10 µM (inactive) in assay [1] and > 10 µM in assay [2].

For the compound `O=C(OCn1ncc(Cl)c(Cl)c1=O)c1ccccc1Cl`, the values for the IC50 in assay [1] and in assay [2] were > 10 µM (inactive) and 16.6 µM, respectively.

As to `O=C(C1CCN(S(=O)(=O)c2cccs2)CC1)N1CCCCCC1`, the IC50 in assay [1] is > 10 µM (inactive); in assay [2] it was > 10 µM.

Take `CCOCCCNC(=O)C1CCN(C(=O)N(C)C)CC1`: the IC50 in assay [1] is > 10 µM (inactive); in assay [2], > 10 µM.

With `CCC(C)(C)NC(=O)CN(C(=O)CCC(=O)Nc1ccccn1)c1ccc(F)c(Cl)c1`, the IC50 in assay [1] is > 10 µM (inactive); in assay [2], > 10 µM.

For `COc1ccc(Cl)cc1NC(=O)C(C)N1CCN(C/C=C/c2ccccc2)CC1` (stereo unspecified), the IC50 in assay [1] is 20.4 µM (inactive); in assay [2], 15 µM.

Turning to `O=C(OCn1ncc(Br)c(Br)c1=O)c1ccc(F)cc1`, the values for the IC50 in assay [1] and in assay [2] were > 10 µM (inactive) and 5.38 µM, respectively.

Turning to `CCSc1nnc(NC(=O)NCC(F)(F)F)s1`, the figures for the IC50 in assay [1] and in assay [2] were > 10 µM (inactive) and > 10 µM, respectively.

For the compound `COC(=O)C1=CN(CCCN2CCCC2=O)C=C(C(=O)OC)C1c1ccccc1C(F)(F)F`, the IC50 in assay [1] was > 10 µM (inactive); in assay [2] it was > 10 µM.

Take `Cc1ccc2cc(CN(CCO)Cc3nnnn3Cc3ccc(F)cc3)c(=O)[nH]c2c1`: the IC50 is > 10 µM (inactive) in assay [1] and > 10 µM in assay [2].

As to `Cc1nnc(-c2cccc(Br)c2)c2cn(-c3ccccc3)nc12`, the IC50 in assay [1] is > 10 µM (inactive); in assay [2], > 10 µM.

With `COc1ccc2c(c1)C(C)=CC(C)(C)N2C(=O)CSc1nnc(-c2ccc(C)cc2)o1`, the IC50 in assay [1] is > 10 µM (inactive); in assay [2] it was > 10 µM.

Consider `O=C(COc1ccc(Cl)cc1Cl)NCCCN1CCOCC1`, for which the results for the IC50 in assay [1] and in assay [2] were > 10 µM (inactive) and > 10 µM, respectively.

As for `CCOC(=O)COc1ccccc1C1Nc2ccccc2C(=O)N1c1cccc(Cl)c1` (stereo unspecified), the IC50 in assay [1] is > 10 µM (inactive); in assay [2], > 10 µM.

The IC50 is the midpoint of a concentration-inhibition curve.
